Data: BindingDB's records for doi:10.3109/14756366.2011.584535 (Balikesir University, 2012)

Experiments:
[1] = molecular target: Carbonic anhydrase 1 (Homo sapiens, UniProt P00915); assay: CA Enzyme Assay
Method: (§1) CA activity was measured by the Maren method which is based on determination of the time required for the pH to decrease from 10.0 to 7.4 due to CO2 hydration [Maren et al., J. Pharm. Exp. Ther., 130:2629-2634].

[2] = molecular target: Carbonic anhydrase 2 (Homo sapiens, UniProt P00918); assay: CA Enzyme Assay
Method: as §1

Sequence of Carbonic anhydrase 1 (P00915 whole entry): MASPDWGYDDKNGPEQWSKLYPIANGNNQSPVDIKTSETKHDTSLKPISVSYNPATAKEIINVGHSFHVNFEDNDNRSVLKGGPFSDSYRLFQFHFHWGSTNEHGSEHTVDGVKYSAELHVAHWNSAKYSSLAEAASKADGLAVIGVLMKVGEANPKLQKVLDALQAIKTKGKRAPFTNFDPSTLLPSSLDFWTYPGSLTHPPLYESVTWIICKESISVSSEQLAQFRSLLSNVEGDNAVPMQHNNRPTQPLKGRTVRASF

| SMILES | IC50 [1] | IC50 [2] |
| --- | --- | --- |
| CC12C=CC3=C4CCC(=O)C=C4CCC3C1CCC2O (stereo unspecified) [Trenbolone (2)] | 55 µM | 159 µM |
| CC/C(=C(/CC)c1ccc(O)cc1)c1ccc(O)cc1 | 94 µM | 89 µM |
| CC1CCCC(O)CCCCCc2cc(O)cc(O)c2C(=O)O1 (stereo unspecified) [Zeranol (4)] | 898 µM | 101 µM |
